The values that follow come from the NIST ThermoML archive (doi:10.1021/acs.jced.7b00802).

The conditions of this data set: Liquid, Ebulliometric method (Recirculating still).

Numbers after ± are expanded uncertainties.

Broadly, the vapor or sublimation pressure is the pressure of vapour in equilibrium with the condensed phase. As for `COCCOC` [1,2-dimethoxyethane], for the setting “357.75 K”, the “vapor or sublimation pressure” value came to 101.3 ± 0.8 kPa.

Take `CCCCCC` [hexane]: for the setting “341.88 K”, the “vapor or sublimation pressure” value is listed as 101.3 ± 0.8 kPa.

Turning to `CC1CCCC1` [methylcyclopentane], the “vapor or sublimation pressure” value (344.96 K) worked out at 101.3 ± 0.8 kPa.
